The record followed here is patent US20250339569A1, “CARBONIC ANHYDRASE IX LIGANDS” (priority 2021, published 2025).

Read-outs that look alike come from different tables or passages of the source. Starred links: 1 amine or outer side, 2 acyl side, 3 side chain; linkers in the order of their positions; H or OH if unused. Positions of bridges follow the written chain, without caps; N, C: chain ends. Non-standard residues stand in square brackets, D forms with d. Residues, ends and D or L forms follow the SMILES beside them. *: point of attachment. X35 = CC(=O)N[C@@H](CCC(=O)Nc1cccc(C[C@H](N[*:1])C(=O)[*:2])c1)C(=O)O; X38 = O=C(Cc1cc(=O)[nH][nH]c1=O)Nc1cccc(C[C@H](N[*:1])C(=O)[*:2])c1; X30 = Cn1ncc(C(=O)Nc2cccc(C[C@H](N[*:1])C(=O)[*:2])c2)c1C#N; X34 = O=C(CCc1nc[nH]n1)Nc1cccc(C[C@H](N[*:1])C(=O)[*:2])c1; DOTA = O=C(O)CN1CCN(CC(=O)O)CCN(CC(=O)*)CCN(CC(=O)O)CC1; X7 = O=C([C@H](Cc1cccc(N[*:3])c1)N[*:1])[*:2]; Phe(4-NH2) = Nc1ccc(C[C@H](N)C(=O)O)cc1; mXylylene = c1cc(C[*:1])cc(C[*:2])c1; NH(4-Cl-benzyl) = Clc1ccc(CN*)cc1; X13 = O=C1NC2NC(=O)N(CC(=O)*)C2N1; X12 = O=C(CC1CCN([*:1])CC1)[*:2]; X2 = O=C(CN1CCC(N[*:1])CC1)[*:2]; Suc = O=C(CCC(=O)[*:2])[*:1]; 3Amb = NCc1cccc(C(=O)O)c1; 4Amb = NCc1ccc(C(=O)O)cc1; Dap = NC[C@H](N)C(=O)O; GABA = NCCCC(=O)O

For assay [1], the target named is T1, CAIX-expressing human HT-29 colorectal cancer cells (Homo sapiens, UniProt Q16790).
T1 construct: CAIX-expressing human HT-29 colorectal cancer cells; host or cells: HT-29 human colorectal cancer cells
Kind of assay: FACS binding assay (IC50 determination, competition with tracer 3BP-2776 or 3BP-4149). To be noted: FACS binding assay, HT-29 cells, 4° C., 1 hour, read-out: pIC50 category (activity) (converted). Put shortly:
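HT-29 cells in FACS buffer (PBS, 1% FCS) at 500.000 cells/ml were exposed to compounds competing with a labelled tracer, with biotinylated compounds detected by 1 μg/mL APC-streptavidin for 30 min on ice. APC/Cy5 median fluorescence was read by flow cytometry and IC50 derived by 4PL fit.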
On the technique in general: Flow cytometry measures light scatter and fluorescence of single cells or particles in a stream.

Assay [2] deals with T2, human carbonic anhydrase IX (hCAIX-Fc) (Homo sapiens, UniProt Q16790).
T2 construct: purchased SinoBliological (Sino Biological) 10107-H02H
Description: Surface plasmon resonance assay with hCAIX-Fc. In kind it is binding. Particulars: 25° C.; for t1/2 category (activity): SPR dissociation half-life, hCAIX-Fc; for Kd: SPR, hCAIX-Fc captured, read-out: pKD category (activity) (converted). A general note: SPR reads the build-up and loss of mass on a sensor chip optically.

The mark [3] stands for this setting: competition with tracer 3BP-2776 (10 nM, biotin-labeled).
Setting [4] is: competition with tracer 3BP-4149 (3 nM, Cy5-labeled).

On to `CC(C)C[C@@H]1NC(=O)[C@H](Cc2c[nH]c3ccccc23)NC(=O)[C@H](CC(=O)O)NC(=O)[C@H]2CCCN2C(=O)[C@H](CCC(=O)O)NC(=O)[C@@H]2CSCc3cccc(c3)CSC[C@@H](C(N)=O)NC(=O)[C@H](CNC(=O)C[C@H](NC(=O)CC3CCN(C(=O)CN4CCN(CC(=O)O)CCN(CC(=O)O)CCN(CC(=O)O)CC4)CC3)C(=O)N2)NC(=O)[C@H](Cc2c[nH]c3ccccc23)NC(=O)[C@H]([C@@H](C)O)NC1=O` [3BP-4259] ({DOTA}-[X12]DCE[dP]DWLTW[Dap]C-NH2; lactam 2-11; linker 3-12 via mXylylene), for which the IC50 in assay [1] (setting [3]) is less than 10 nM. Also, in assay [2], the “t1/2 category (activity)” value was “D (t1/2≤2.0 minutes)” and the Kd is less than 10 nM.
For the compound `CC(C)C[C@@H]1NC(=O)[C@H](Cc2c[nH]c3ccccc23)NC(=O)[C@H](CC(=O)O)NC(=O)[C@H]2CCCN2C(=O)[C@H](CCC(=O)O)NC(=O)[C@@H]2CSCc3cccc(c3)CSC[C@@H](C(N)=O)NC(=O)[C@H](CNC(=O)C[C@H](NC(=O)c3cccc(CNC(=O)CN4CCN(CC(=O)O)CCN(CC(=O)O)CCN(CC(=O)O)CC4)c3)C(=O)N2)NC(=O)[C@H](Cc2c[nH]c3ccccc23)NC(=O)[C@H]([C@@H](C)O)NC1=O` [3BP-4260] ({DOTA-3Amb}-DCE[dP]DWLTW[Dap]C-NH2; lactam 1-10; linker 2-11 via mXylylene), the IC50 in assay [1] (setting [3]) is less than 10 nM. Besides, in assay [2], the “t1/2 category (activity)” value was “D (t1/2≤2.0 minutes)” and the Kd was less than 10 nM.
With `CC(C)C[C@@H]1NC(=O)[C@H](Cc2c[nH]c3ccccc23)NC(=O)[C@H](CC(=O)O)NC(=O)[C@H]2CCCN2C(=O)[C@H](CCC(=O)O)NC(=O)[C@@H]2CSCc3cccc(c3)CSC[C@@H](C(N)=O)NC(=O)[C@H](CNC(=O)C[C@H](NC(=O)c3ccc(CNC(=O)CN4CCN(CC(=O)O)CCN(CC(=O)O)CCN(CC(=O)O)CC4)cc3)C(=O)N2)NC(=O)[C@H](Cc2c[nH]c3ccccc23)NC(=O)[C@H]([C@@H](C)O)NC1=O` [3BP-4261] ({DOTA-4Amb}-DCE[dP]DWLTW[Dap]C-NH2; lactam 1-10; linker 2-11 via mXylylene), the IC50 in assay [1] (setting [3]) was less than 10 nM. In addition, in assay [2], the “t1/2 category (activity)” value is “C (t1/2 between 2.1 and 5.0 minutes)”; the Kd is less than 10 nM.
Regarding `CC(C)C[C@@H]1NC(=O)[C@H](Cc2c[nH]c3ccccc23)NC(=O)[C@H](CC(=O)O)NC(=O)[C@H]2CCCN2C(=O)[C@H](CCC(=O)O)NC(=O)[C@@H]2CSCc3cccc(c3)CSC[C@@H](C(N)=O)NC(=O)[C@H](CNC(=O)C[C@H](NC(=O)CCCNC(=O)CN3CCN(CC(=O)O)CCN(CC(=O)O)CCN(CC(=O)O)CC3)C(=O)N2)NC(=O)[C@H](Cc2c[nH]c3ccccc23)NC(=O)[C@H]([C@@H](C)O)NC1=O` [3BP-4263] ({DOTA-GABA}-DCE[dP]DWLTW[Dap]C-NH2; lactam 1-10; linker 2-11 via mXylylene), the IC50 in assay [1] (setting [4]) was less than 10 nM. Further, in assay [2], the “t1/2 category (activity)” value was “C (t1/2 between 2.1 and 5.0 minutes)”; the Kd is less than 10 nM.
For the compound `CC(C)C[C@@H]1NC(=O)[C@H](Cc2cccc(NC(=O)C[C@@H]3NC(=O)CNC3=O)c2)NC(=O)[C@H](CC(=O)O)NC(=O)[C@H]2CCCN2C(=O)[C@H](CCC(=O)O)NC(=O)[C@@H](NC(=O)[C@H](Cc2ccc(O)cc2)NC(=O)[C@@H](NC(=O)CN2CCC(NC(=O)CN3CCN(CC(=O)O)CCN(CC(=O)O)CCN(CC(=O)O)CC3)CC2)C(C)C)CSCc2cccc(c2)CSC[C@@H](C(N)=O)NC(=O)[C@H](CO)NC(=O)[C@H](Cc2c[nH]c3ccccc23)NC(=O)[C@H]([C@@H](C)O)NC1=O` [3BP-4288], the IC50 in assay [1] (setting [4]) is 100 to 794 nM. Moreover, in assay [2], the “t1/2 category (activity)” value is on record as “D (t1/2≤2.0 minutes)” and the Kd was 10 to 79.4 nM.
The corresponding values for `CC(C)C[C@@H]1NC(=O)[C@H](Cc2cccc(NC(=O)c3cnn(C)c3C#N)c2)NC(=O)[C@H](CC(=O)O)NC(=O)[C@H]2CCCN2C(=O)[C@H](CCC(=O)O)NC(=O)[C@@H](NC(=O)[C@H](Cc2ccc(O)cc2)NC(=O)[C@@H](NC(=O)CN2CCC(NC(=O)CN3CCN(CC(=O)O)CCN(CC(=O)O)CCN(CC(=O)O)CC3)CC2)C(C)C)CSCc2cccc(c2)CSC[C@@H](C(N)=O)NC(=O)[C@H](CO)NC(=O)[C@H](Cc2c[nH]c3ccccc23)NC(=O)[C@H]([C@@H](C)O)NC1=O` [3BP-4305] ({DOTA}-[X2]VYCE[dP]D[X30]LTWSC-NH2; linker 4-13 via mXylylene) are 10 to 79.4 nM, “D (t1/2≤2.0 minutes)” and 10 to 79.4 nM.
`CC(C)C[C@@H]1NC(=O)[C@H](Cc2cccc(NC(=O)Cc3cc(=O)[nH][nH]c3=O)c2)NC(=O)[C@H](CC(=O)O)NC(=O)[C@H]2CCCN2C(=O)[C@H](CCC(=O)O)NC(=O)[C@@H](NC(=O)[C@H](Cc2ccc(O)cc2)NC(=O)[C@@H](NC(=O)CN2CCC(NC(=O)CN3CCN(CC(=O)O)CCN(CC(=O)O)CCN(CC(=O)O)CC3)CC2)C(C)C)CSCc2cccc(c2)CSC[C@@H](C(N)=O)NC(=O)[C@H](CO)NC(=O)[C@H](Cc2c[nH]c3ccccc23)NC(=O)[C@H]([C@@H](C)O)NC1=O` [3BP-4322] ({DOTA}-[X2]VYCE[dP]D[X38]LTWSC-NH2; linker 4-13 via mXylylene): in assay [1] (setting [4]), the IC50 is 10 to 79.4 nM. In assay [2], the “t1/2 category (activity)” value is “B (t1/2 between 5.1 and 15.0 minutes)”; the Kd is less than 10 nM.
Take `CC(C)C[C@@H]1NC(=O)[C@H](Cc2cccc(NC(=O)CCc3nc[nH]n3)c2)NC(=O)[C@H](CC(=O)O)NC(=O)[C@H]2CCCN2C(=O)[C@H](CCC(=O)O)NC(=O)[C@@H](NC(=O)[C@H](Cc2ccc(O)cc2)NC(=O)[C@@H](NC(=O)CN2CCC(NC(=O)CN3CCN(CC(=O)O)CCN(CC(=O)O)CCN(CC(=O)O)CC3)CC2)C(C)C)CSCc2cccc(c2)CSC[C@@H](C(N)=O)NC(=O)[C@H](CO)NC(=O)[C@H](Cc2c[nH]c3ccccc23)NC(=O)[C@H]([C@@H](C)O)NC1=O` [3BP-4324] ({DOTA}-[X2]VYCE[dP]D[X34]LTWSC-NH2; linker 4-13 via mXylylene): the IC50 in assay [1] (setting [4]) was 10 to 79.4 nM. For the same compound, in assay [2], the “t1/2 category (activity)” value is reported as “A (t1/2>15.0 minutes)” and the Kd was less than 10 nM.
The corresponding values for `CC(C)C[C@@H]1NC(=O)[C@H](Cc2c[nH]c3ccccc23)NC(=O)[C@H](CCC(=O)NCc2ccc(Cl)cc2)NC(=O)[C@H]2CCCN2C(=O)[C@H](CCC(=O)O)NC(=O)[C@@H](NC(=O)[C@H](Cc2ccc(O)cc2)NC(=O)[C@@H](NC(=O)CN2CCC(NC(=O)CN3CCN(CC(=O)O)CCN(CC(=O)O)CCN(CC(=O)O)CC3)CC2)C(C)C)CSCc2cccc(c2)CSC[C@@H](C(N)=O)NC(=O)[C@H](CO)NC(=O)[C@H](Cc2c[nH]c3ccccc23)NC(=O)[C@H]([C@@H](C)O)NC1=O` [3BP-4334] ({DOTA}-[X2]VYCE[dP]E(NH(4-Cl-benzyl))WLTWSC-NH2; linker 4-13 via mXylylene) are 10 to 79.4 nM, “A (t1/2>15.0 minutes)” and less than 10 nM.
`CC(C)C[C@@H]1NC(=O)[C@H](Cc2cccc(NC(=O)CN3C(=O)NC4NC(=O)NC43)c2)NC(=O)[C@H](CC(=O)O)NC(=O)[C@H]2CCCN2C(=O)[C@H](CCC(=O)O)NC(=O)[C@@H](NC(=O)[C@H](Cc2ccc(O)cc2)NC(=O)[C@@H](NC(=O)CN2CCC(NC(=O)CN3CCN(CC(=O)O)CCN(CC(=O)O)CCN(CC(=O)O)CC3)CC2)C(C)C)CSCc2cccc(c2)CSC[C@@H](C(N)=O)NC(=O)[C@H](CO)NC(=O)[C@H](Cc2c[nH]c3ccccc23)NC(=O)[C@H]([C@@H](C)O)NC1=O` (stereo partly drawn) [3BP-4341] ({DOTA}-[X2]VYCE[dP]D[X7](X13)LTWSC-NH2; linker 4-13 via mXylylene): the IC50 in assay [1] (setting [4]) was 10 to 79.4 nM. Moreover, in assay [2], the “t1/2 category (activity)” value is “C (t1/2 between 2.1 and 5.0 minutes)”; the Kd is less than 10 nM.
`CC(C)C[C@@H]1NC(=O)[C@H](Cc2ccc(NC(=O)CCC(=O)O)cc2)NC(=O)[C@H](CC(=O)O)NC(=O)[C@H]2CCCN2C(=O)[C@H](CCC(=O)O)NC(=O)[C@@H](NC(=O)[C@H](Cc2ccc(O)cc2)NC(=O)[C@@H](NC(=O)CN2CCC(NC(=O)CN3CCN(CC(=O)O)CCN(CC(=O)O)CCN(CC(=O)O)CC3)CC2)C(C)C)CSCc2cccc(c2)CSC[C@@H](C(N)=O)NC(=O)[C@H](CO)NC(=O)[C@H](Cc2c[nH]c3ccccc23)NC(=O)[C@H]([C@@H](C)O)NC1=O` [3BP-4356] ({DOTA}-[X2]VYCE[dP]D[Phe(4-NH2)](Suc)LTWSC-NH2; linker 4-13 via mXylylene): in assay [1] (setting [4]), the IC50 was 10 to 79.4 nM. Further, in assay [2], the “t1/2 category (activity)” value is given as “D (t1/2≤2.0 minutes)” and the Kd is 10 to 79.4 nM.
For `CC(=O)N[C@@H](CCC(=O)Nc1cccc(C[C@@H]2NC(=O)[C@H](CC(=O)O)NC(=O)[C@H]3CCCN3C(=O)[C@H](CCC(=O)O)NC(=O)[C@@H](NC(=O)[C@H](Cc3ccc(O)cc3)NC(=O)[C@@H](NC(=O)CN3CCC(NC(=O)CN4CCN(CC(=O)O)CCN(CC(=O)O)CCN(CC(=O)O)CC4)CC3)C(C)C)CSCc3cccc(c3)CSC[C@@H](C(N)=O)NC(=O)[C@H](CO)NC(=O)[C@H](Cc3c[nH]c4ccccc34)NC(=O)[C@H]([C@@H](C)O)NC(=O)[C@H](CC(C)C)NC2=O)c1)C(=O)O` [3BP-4361] ({DOTA}-[X2]VYCE[dP]D[X35]LTWSC-NH2; linker 4-13 via mXylylene), the IC50 in assay [1] (setting [4]) is 10 to 79.4 nM. For the same compound, in assay [2], the “t1/2 category (activity)” value is “A (t1/2>15.0 minutes)” and the Kd was less than 10 nM.
